Assay results taken from the NIST ThermoML archive (doi:10.1016/j.jct.2008.06.003).
Numbers after ± are expanded uncertainties.

What was measured:
[1] = Crystal; for molar enthalpy of sublimation: 298.15 K, Static calorimetry
[2] = Molar enthalpy of transition or fusion; settings: Crystal; DSC

Row | SMILES | molar enthalpy of sublimation [1] [kcal/mol] | Normal melting temperature ([1]; DTA) [°C] | Molar enthalpy of transition or fusion [2] [kcal/mol]
1 | O=C(O)C1COc2ccccc2O1 (centres undefined) [1,4-benzodioxan-2-carboxylic acid] | 28.2 ± 1 | – | –
2 | OCC1COc2ccccc2O1 (centres undefined) [1,4-benzodioxane-2-methanol] | 25.5 ± 0.406 | 89.2 ± 0.53 | 6.88 ± 0.151
